Results taken from patent US9675555B2, “Liposome-encapsulated bicelles and use thereof in diluted systems” (priority 2010, dated 2017).
Where a name gives a salt, the structure may show the parent alone.

Assays:
[1] = Incorporation of different substances into the systems; assay type: physicochemical
Method: The incorporation was made in the step of formation of the bicelles. Depending on the hydrophilic or lypophilic character of the substance, this was added together with the lipids forming the bicelle in the chloroform step or together with the hydration water. For these preparations, the following blends: DPPC/DHPC, DMPC/DHPC and DOPC/DHPC were selected. The DOPC is dioleoylphosphatidylcholine. The work was carried out with molar rates of the concentrations of both lipids between 2 and 3.5.
The samples were submitted between 10 and 50 sonication cycles in an ultrasound bath for a period of 5 minutes and 5 minutes of freezing until they became clear.
These bicelles, together with the substances internally contained were encapsulated in liposomes in the form described in example 1 and were characterized according to the methods described in example 2.
The nistatine molecule was incorporated to the systems of the invention as described in example 3.

Candida albicans fungus = assay: Microbiologic activity of nistatine (MIC); assay type: cell-based; settings: nistatine incorporated to the liposomes of the invention

Compound | encapsulation within the bicelles contained within the liposomes of the invention [1] | quantity of nistatine incorporated into the system of the invention ([1]; high water content system) | minimum inhibitory concentration (MIC) (Candida albicans fungus) [µg/mL]
Cn1c(=O)c2c(ncn2C)n(C)c1=O [caffeine] | efficiently encapsulated |  | 
CC(C)CCC[C@@H](C)[C@H]1CC[C@H]2[C@@H]3CC=C4C[C@@H](OS(=O)(=O)O)CC[C@]4(C)[C@H]3CC[C@]12C [cholesterol sulfate] | efficiently encapsulated |  | 
O=C(O)Cc1ccccc1Nc1c(Cl)cccc1Cl [dichlophenac] | efficiently encapsulated |  | 
O=C(O)c1ccccc1Nc1cccc(C(F)(F)F)c1 [flufenamic acid] | efficiently encapsulated |  | 
CNC(=O)CN(CCN(CCN(CC(=O)[O-])CC(=O)NC)CC(=O)[O-])CC(=O)[O-].[Gd+3] [gadodiamide] | efficiently encapsulated |  | 
[Fe] [iron] | efficiently encapsulated |  | 
ceramides | efficiently encapsulated |  | 
nistatine |  | about 15.75 mg/ml | 16
